Read-outs that look alike come from different tables or passages of the source.
Legend:
[1] = target: T1, human 5-HT1A receptor subtype (Homo sapiens, UniProt P08908); experiment: 5-HT1A receptor binding assay with [3H]8-OH-DPAT on membranes of 5-HT1A.CHO cells; conditions: for Ki: [3H]8-OH-DPAT 1.5 nM, CHO cell membranes; for 5-HT1A (% @1000nM) / 5-HT1A (% @10nM): given instead of a Ki
T1 construct: expressed in transfected cells
T1 sequence (P08908 1-422): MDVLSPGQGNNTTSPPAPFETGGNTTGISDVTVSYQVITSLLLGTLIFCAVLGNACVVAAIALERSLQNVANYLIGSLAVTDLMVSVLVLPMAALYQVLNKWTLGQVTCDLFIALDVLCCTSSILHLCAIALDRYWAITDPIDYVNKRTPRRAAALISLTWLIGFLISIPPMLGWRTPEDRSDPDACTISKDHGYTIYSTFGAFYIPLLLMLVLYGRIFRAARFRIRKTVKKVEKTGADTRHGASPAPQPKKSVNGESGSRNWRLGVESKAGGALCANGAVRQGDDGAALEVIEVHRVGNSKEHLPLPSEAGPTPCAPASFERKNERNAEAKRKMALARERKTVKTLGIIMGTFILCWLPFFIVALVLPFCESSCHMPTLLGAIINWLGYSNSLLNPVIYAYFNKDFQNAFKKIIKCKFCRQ
Method: (§1) The PCR cloning of the human 5-HT1A receptor subtype from a human genomic library has been described previously Chanda et al., Mol. Pharmacol., 43:516 (1993). A stable Chinese hamster ovary cell line expressing the human 5-HT1A receptor subtype (5-HT1A.CHO cells) was employed throughout this study. Cells were maintained in DMEM supplemented with 10% foetal calf serum, non-essential amino acids and penicillin/ streptomycin.
Cells were grown to 95-100% confluency as a monolayer before membranes were harvested for binding studies. Cells were gently scraped from the culture plates, transferred to centrifuge tubes, and washed twice by centrifugation (2000 rpm for 10 min., 4°C) in buffer (50 mM Tris; pH 7.5). The resulting pellets were aliquoted and placed at -80°C. On the day of assay, the cells were thawed on ice, and resuspended in buffer. Studies were conducted using [^3H]8-OH-DPAT as the radioligand. The binding assay was performed in 96 well microtiter plates in a final total volume of 250 µL of buffer. Competition experiments were performed by using 7 concentrations of unlabelled drug and a final ligand concentration of 1.5 nM . Non-specific binding was determined in the presence of 10 µM 5HT. Saturation analysis was conducted by using [^3H]8-OH-DPAT at concentrations ranging from 0.3-30 nM. Following a 30 minute incubation at room temperature, the reaction was terminated by the addition of ice cold buffer and rapid filtration using a M-96 Brandel Cell Harvester (Gaithersburg, MD) through a GF/B filter presoaked for 30 minutes in 0.5% polyethyleneimine.

[2] = target: T2, serotonin transporter (Rattus norvegicus, UniProt P31652); experiment: serotonin transporter affinity, 3H-paroxetine binding to frontal cortical membranes; set-up: species or system male Sprague-Dawley rats
T2 construct: frontal cortical membranes prepared from male Sprague-Dawley rats; from tissue; host or cells: rat frontal cortex membranes
T2 sequence (P31652 whole entry): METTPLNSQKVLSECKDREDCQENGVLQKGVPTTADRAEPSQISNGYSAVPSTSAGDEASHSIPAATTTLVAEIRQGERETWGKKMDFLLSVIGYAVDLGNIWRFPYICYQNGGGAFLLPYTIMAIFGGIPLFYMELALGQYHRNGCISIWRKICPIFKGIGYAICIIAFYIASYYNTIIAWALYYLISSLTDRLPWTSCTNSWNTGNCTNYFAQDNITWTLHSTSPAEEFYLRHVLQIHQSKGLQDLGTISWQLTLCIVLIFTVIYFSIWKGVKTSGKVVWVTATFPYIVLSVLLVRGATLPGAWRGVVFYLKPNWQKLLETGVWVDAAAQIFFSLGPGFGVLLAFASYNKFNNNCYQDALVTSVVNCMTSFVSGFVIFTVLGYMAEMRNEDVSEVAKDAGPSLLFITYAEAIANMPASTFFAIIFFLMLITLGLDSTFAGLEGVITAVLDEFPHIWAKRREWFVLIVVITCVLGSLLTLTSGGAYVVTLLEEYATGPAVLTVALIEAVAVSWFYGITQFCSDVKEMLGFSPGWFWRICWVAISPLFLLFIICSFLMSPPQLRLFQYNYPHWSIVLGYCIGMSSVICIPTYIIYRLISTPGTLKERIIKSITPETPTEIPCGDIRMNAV
Method: Briefly, frontal cortical membranes prepared from male Sprague-Dawley rats were incubated with ^3H-paroxetine (0.1 nM) for 60 min at 25°C. All tubes also contained either vehicle, test compound (one to eight concentrations), or a saturating concentration of fluoxetine (10 µM) to define specific binding. All reactions are terminated by the addition of ice cold Tris buffer followed by rapid filtration using a Tom Tech filtration device to separate bound from free ^3H-paroxetine.

[3] = target: T1, human 5-HT1A receptor subtype; experiment: cAMP formation in forskolin-treated cells (cAMP SPA assay); type: cell-based; conditions: forskolin 1 uM, 10 min at 37°C
Method: as §1
The following assays were performed by incubating the cells with DMEM containing 25 mM HEPES, 5 mM theophylline and 10 µM pargyline for a period of 20 minutes at 37°C. Functional activity was assessed by treating the cells with forskolin (1 uM final concentration) followed immediately by test compound (6 concentrations) for an additional 10 min at 37°C. In separate experiments, 6 concentrations of antagonist were preincubated for 20 min prior to the addition of 10 nM 8-OH-DPAT and forskolin. The reaction was terminated by removal of the media and addition of 0.5 ml ice cold assay buffer. Plates were stored at -20°C prior to assessment of cAMP formation by a cAMP SPA assay (Amersham).

[4] = target: T3, 5-HT1A cloned receptor (Homo sapiens, UniProt P08908); experiment: [35S]-GTPγS binding assay on 5-HT1A cloned receptor membrane fragments; type: biochemical; conditions: maximum agonist response defined by excess 8-OH-DPAT
T3 construct: expressed in transfected cells
T3 sequence (P08908 1-422): T1 sequence (P08908 1-422)
Method: The [^35S]-GTPγS binding assay was similar to that used by Lazareno and Birdsall, Br. J. Pharmacol. 109:1120 (1993). Briefly, 5-HT1A cloned receptor membrane fragments (as used for 5-HT1A receptor binding assays) were stored at -70 °C until needed. When needed, membranes were rapidly thawed, centrifuged at 40,000 x g for 10 minutes and resuspended at 4 °C for 10 minutes in assay buffer (25 mM HEPES, 3 mM MgCl2, 100 mM NaCI, 1 mM EDTA, 10 uM GDP, […] DTT, pH 8.0). These membranes were then incubated for 30 min at 30 °C with [^35S]GTPgS (1 nM) in the presence of vehicle, test compound (one to eight concentrations), or excess 8-OH-DPAT to define maximum agonist response. All reactions are terminated by the addition of ice cold Tris buffer followed by rapid filtration using a Tom Tech® filtration device to separate bound from free [^35S]GTPgS. Agonists produce an increase in the amount of [^35S]GTPgS bound whereas antagonists produce no increase in binding. Bound radioactivity was counted and analyzed as above.

[5] = 3H-paroxetine 0.1 nM, rat frontal cortical membranes, read-out: ST (Ki)

Compound | Ki [1] [nM] | Ki [2, 5] [nM] | Emax [4] [%] | also measured
COc1ccccc1OCCN[C@H]1CC[C@@H](c2c[nH]c3ccc(F)cc32)CC1 [Example 1a, [(cis)-4-(5-Fluoro-1H-indol-3-yl)-cyclohexyl]-[2-(2-methoxy-phenoxy)-ethyl]-amine] | 307 |  |  | 
COc1ccccc1OCCN[C@H]1CC[C@H](c2c[nH]c3ccc(F)cc32)CC1 [Example 1b, [(trans)-4-(5-Fluoro-1H-indol-3-yl)-cyclohexyl]-[2-(2-methoxy-phenoxy)-ethyl]-amine] | 22.4 |  |  | 
COc1ccc(F)cc1OCCN[C@H]1CC[C@@H](c2c[nH]c3cc(F)ccc32)CC1 [Example 2a, [(1,4-cis)-4-(6-Fluoro-1H-indol-3-yl)-cyclohexyl]-[2-(5-fluoro-2-methoxy-phenoxy)-ethyl]-amine] | 996 | 1.19 |  | 
Fc1ccc2[nH]cc([C@H]3CC[C@@H](NCCOc4cccc5[nH]ccc45)CC3)c2c1 [Example 3a] | 147 | 26 |  | 
Fc1ccc2[nH]cc([C@H]3CC[C@@H](NCCOc4cccc5c4OCCO5)CC3)c2c1 [Example 4a] | 484 | 18 |  | 
Fc1ccc2[nH]cc([C@H]3CC[C@H](NCCOc4cccc5c4OCCO5)CC3)c2c1 [Example 4b] | 18.9 | 1.12 |  | Emax [3]: 61%
Fc1ccc2c(c1)[nH]cc2[C@H]1CC[C@@H](NCCOc2cccc3c2OCCO3)CC1 [Example 4c] | 353 | 6.37 |  | 
Fc1ccc2c(c1)[nH]cc2[C@H]1CC[C@H](NCCOc2cccc3c2OCCO3)CC1 [Example 4d] | 16.7 | 0.21 | 74.8 | 
Fc1cc2c(c(OCCN[C@H]3CC[C@@H](c4c[nH]c5ccc(F)cc54)CC3)c1)OCCC2 [Example 5a, [2-(6-Fluoro-chroman-8-yloxy)-ethyl]-[(1,4-cis)-4-(5-fluoro-1H -indol-3-yl)-cyclohexyl]-amine] |  | 13 |  | 5-HT1A (% @1000nM) [1]: 49%@1000nM
Cn1cc([C@H]2CC[C@@H](NCCOc3cc(F)cc4c3OCCC4)CC2)c2cc(C#N)ccc21 [Example 5c, 3-{(1,4-cis)-4-[2-(6-Fluoro-chroman-8-yloxy)-ethylamino]-cyclohexyl}-1-methyl-1H-indole-5-carbonitrile] |  | 0.53 |  | 5-HT1A (% @1000nM) [1]: 47%@1000nM
Cn1cc([C@H]2CC[C@H](NCCOc3cc(F)cc4c3OCCC4)CC2)c2cc(C#N)ccc21 [Example 5d, 3-{(1,4-cis)-4-[2-(6-Fluoro-chroman-8-yloxy)-ethylamino]-cyclohexyl}-1-methyl-1H-indole-5-carbonitrile] | 24 | 21.4 |  | 
N#Cc1ccc2[nH]cc([C@H]3CC[C@@H](NCCOc4cc(F)cc5c4OCCC5)CC3)c2c1 [Example 5e, 3-{(1,4-cis)-4-[2-(6-Fluoro-chroman-8-yloxy)-ethylamino]-cyclohexyl}-1H-indole-5-carbonitrile] | 385 | 2.74 |  | 
N#Cc1ccc2[nH]cc([C@H]3CC[C@@H](NCCOc4cc(F)cc5c4OCC5)CC3)c2c1 [Example 6a] |  | 1.07 |  | 5-HT1A (% @1000nM) [1]: 49%@1000nM
N#Cc1ccc2[nH]cc([C@H]3CC[C@H](NCCOc4cc(F)cc5c4OCC5)CC3)c2c1 [Example 6b] | 23.5 | 1.53 |  | 
Fc1cc(OCCN[C@H]2CC[C@@H](c3c[nH]c4ccc(F)cc43)CC2)c2occc2c1 [Example 7a, [2-(5-Fluoro-benzofuran-7-yloxy)-ethyl]-[(1,4-cis)-4-(5-fluoro-1H -indol-3-yl)-cyclohexyl]-amine] | 146 |  |  | 
Fc1cc(OCCN[C@H]2CC[C@H](c3c[nH]c4ccc(F)cc43)CC2)c2occc2c1 [Example 7b, [2-(5-Fluoro-benzofuran-7-yloxy)-ethyl]-[(1,4-trans)-4-(5-fluoro-1H -indol-3-yl)-cyclohexyl]-amine] | 18.8 |  |  | 
Fc1ccc2[nH]cc([C@H]3CC[C@H](NCCOc4cc(Cl)cc5[nH]cnc45)CC3)c2c1 [Example 8a, [2-(6-Chloro-1H-benzoimidazol-4-yloxy)-ethyl]-[(1,4-trans)-4-(5-fluoro-1H-indol-3-yl)-cyclohexyl]-amine] | 12.7 | 1.6 | 0 | 
COc1cc(F)ccc1OCCN[C@H]1CC[C@@H](c2c[nH]c3ccc(F)cc32)CC1 [Example 9a, [(1,4-cis)-4-(5-Fluoro-1H-indol-3-yl)-cyclohexyl]-[2-(4-fluoro-2-methoxy-phenoxy)-ethyl]-amine] |  | 1.76 | 45 | 5-HT1A (% @10nM) [1]: 16%@10nM
COc1cc(F)ccc1OCCN[C@H]1CC[C@H](c2c[nH]c3ccc(F)cc32)CC1 [Example 9b, [(1,4-trans)-4-(5-Fluoro-1H-indol-3-yl)-cyclohexyl]-[2-(4-fluoro-2-methoxy-phenoxy)-ethyl]-amine] | 78.3 | 3.28 | 39.5 | 
COc1ccccc1OCCNCC1CCC(c2c[nH]c3ccc(C#N)cc23)CC1 (stereo not drawn) [Example 10b, 3-(4-{[2-(Methoxy-phenoxy)-ethylamino]-methyl}-cyclohexyl)-1H-indole-5-carbonitrile] |  | 1.53 |  | 5-HT1A (% @10nM) [1]: 7%@10nM
COc1cc(F)c(F)cc1OCCN[C@H]1CC[C@@H](c2c[nH]c3ccc(F)cc32)CC1 [Example 11a, (1,4-cis)-[2-(4,5-Difluoro-2-methoxy-phenoxy)-ethyl]-[4-(5-fluoro-1H-indol-3-yl)-cyclohexyl]-amine] |  |  | 0 | 5-HT1A (% @10nM) [1]: 0%@10nM; Ki [2]: 1.7 nM
COc1cc(F)c(F)cc1OCCN[C@H]1CC[C@H](c2c[nH]c3ccc(F)cc32)CC1 [Example 11b, (1,4-trans)-[2-(4,5-Difluoro-2-methoxy-phenoxy)-ethyl]-[4-(5-fluoro-1H-indol-3-yl)-cyclohexyl]-amine] | 24.9 |  | 0 | Ki [2]: 0.7 nM
COc1cc(S(C)(=O)=O)c(F)cc1OCCN[C@H]1CC[C@H](c2c[nH]c3ccc(F)cc32)CC1 [Example 12, [(1,4-trans)-4-(5-Fluoro-1H-indol-3-yl)-cyclohexyl]-[2-(5-fluoro-4-methanesulfonyl-2-methoxy-phenoxy)-ethyl]-amine] |  |  | 0 | 5-HT1A (% @10nM) [1]: 0%@10nM; Ki [2]: 0.47 nM
OC1(CNCCOc2cccc3[nH]ccc23)CCC(c2c[nH]c3ccc(F)cc23)CC1 (stereo not drawn) [Example 13, (1,4)-4-(5-Fluoro-1H-indol-3-yl)-1-([2-(1H-indol-4-yloxy)-ethylamino]-methyl}-cyclohexanol] |  |  | 85 | 

Reference: patent EP1068184B1, “N-ARYLOXYETHYLAMINE DERIVATIVES FOR THE TREATMENT OF DEPRESSION” (Wyeth, priority 1998, dated 1999)
